Values belong to the compound of their own block, whether it stands above or below them.
How the values were obtained:
[1] = p(10% DT, DTE succinate) solvent cast film, 20% loading
Description: 1 ml of the buffer was withdrawn periodically and run through the HPLC system described in Example 1.
Naproxen was formulated at 20% loading in a matrix of p(10% DT, DTE succinate) by solvent casting from methylene chloride and assessed for long-term release.

post-operative pain = settings: after cesarean delivery; comparator ropivacaine continuous wound infiltration with intravenous (iv) diclofenac; cited from earlier work
[2] = In vitro release profile of ketoprofen-loaded microparticles using dialysis tubes; type: physicochemical; settings: p(10% DT, DTE succinate) microparticles 125-180 μm, 40% loading
Description: The p(10% DT, DTE succinate) was dried at 40° C. for 3 days and analyzed. 4.8 g of polymer was placed in a plastic beaker and topped with an excess of ethanol. The polymer was allowed to stand in ethanol at 50° C. for 2-3 hours. […] After overnight drying, the polymer/drug mixture was ground using a coffee grinder (overhead design). First, the polymer/drug mixture was cooled in liquid nitrogen. Then the polymer-drug mass was mixed with ground dry ice, added to the container of the grinder and ground at the highest speed for at least 5 min. The whole mixture of dry ice plus polymer/drug powder was transferred into a beaker, covered with Kimwipes™ and placed into a vacuum oven at 40° C. to dry overnight.
The in vitro release profile of the microparticles was determined using dialysis tubes.

[3] = Ketoprofen release studies from polyarylate films and microparticles in phosphate buffered saline, HPLC; settings: for ketoprofen release rate: p(10% DT, DTE succinate) film; for ketoprofen released per day: p(10% DT, DTE succinate) solvent cast film
[4] = given orally for systemic distribution; cited from earlier work
[5] = p(10% DT, DTE adipate), PBS pH 7.4, 37° C.
[6] = p(10% DT, DTE succinate) melt processed, compression molded film

drug released per day [1]: 1 % per day | release kinetics [1]: zero order kinetics | time until release is complete [1]: about 3 months
SMILES: COc1ccc2cc([C@H](C)C(=O)O)ccc2c1 [Naproxen]

SMILES: O=C(O)Cc1ccccc1Nc1c(Cl)cccc1Cl [diclofenac]
efficacy of continuous wound infiltration versus comparator (post-operative pain): more effective

ketoprofen release after 6 days [2]: 100% | ketoprofen released within 24 hours [2]: About 50% | ketoprofen release mechanism (shape of the release curve) ([3]; DTO polymers, PBS pH 7.4, 37° C.): diffusion controlled | ketoprofen release kinetics ([3]; microparticles milled from compression molded p(10% DT, DTE succinate) film, all sizes): fairly linear release | time until ketoprofen release is completed ([3]; microparticles milled from compression molded p(10% DT, DTE succinate) film, largest particles (>500 microns)): about 60 days | time until ketoprofen release is completed ([3]; microparticles milled from compression molded p(10% DT, DTE succinate) film, smallest particles (212 to 425 microns)): about 40 days | ketoprofen release kinetics ([3]; p(10% DT, DTE adipate), after initial burst, PBS pH 7.4, 37° C.): approximately zero order kinetics | duration of ketoprofen release [3, 5]: 2 weeks | initial burst of ketoprofen release [3, 5]: 20% | ketoprofen release rate ([3]; HMW polymer (94,000)): about 3 % per day | ketoprofen release rate ([3]; LMW polymer (67,800)): about 5 % per day | ketoprofen release kinetics [3, 6]: zero order kinetics | rate of ketoprofen release [3, 6]: 1.3 % per day | ketoprofen released per day ([3]; 10% loading, PBS pH 7.4, 37° C.): about 2 % per day | ketoprofen released per day ([3]; 20% loading, PBS pH 7.4, 37° C.): 5 % per day | ketoprofen released per day ([3]; 30% loading, PBS pH 7.4, 37° C.): 6 % per day | ketoprofen released per day ([3]; 40% loading, PBS pH 7.4, 37° C.): about 8 % per day | ketoprofen release kinetics ([3]; p(10% DT, DTE succinate) solvent cast films, all four loadings 10%, 20%, 30%, 40%): zero order kinetics
SMILES: CC(C(=O)O)c1cccc(C(=O)c2ccccc2)c1 (centres unmarked) [ketoprofen]
effective plasma concentration range [4]: 1,000-4,000 ng/mL

Source: patent US8652525B2, “NSAID delivery from polyarylates” (TYRX, Inc., priority 2008, dated 2014)
